Data on 22 molecules can be found in patent US9663514B2 (Takeda Pharmaceutical Company Limited, priority 2011, dated 2017).

As usually defined, the IC50 is the concentration that gives 50% inhibition.

This assay has as its target T1, SYK (Homo sapiens, UniProt P43405).
T1 construct: The SYK kinase domain (residues 356-635) is amplified via PCR; made in house; host or cells: Sf9 insect cells (baculovirus, pFastBac1)
In words: SYK inhibition: in vitro assay of SYK-mediated phosphorylation of FAM-labeled substrate (Caliper LC-3000). The following applies: SYK kinase domain (residues 356-635); 2.4 nM SYK and 45 μM ATP, 3 μM 5FAM-KKKKEEIYFFFG-NH2, RT 60 min, pH 7.3; pIC50 = −log(IC50), IC50 molar. In kind it is biochemical. The procedure:
The ability of compounds to inhibit SYK activity may be assessed using a variety of methods, including in vitro and in vivo assays. The following in vitro assay measures a test compound's ability to inhibit SYK-mediated phosphorylation of a FAM-labeled SYK-specific substrate (5FAM-KKKKEEIYFFFG-NH2).
SYK protein is prepared from cDNA encoding human spleen tyrosine kinase and is expressed in insect cells using a baculovirus expression vector. The cDNA (IMAGE: 3542895) is purchased from Open Biosystems. The SYK kinase domain (residues 356-635) is amplified via PCR and cloned into plasmid pFastBacl (Invitrogen) at BamHI/XbaI sites. Recombinant plasmid encoding Met-Ala-Lys-SYK(356-635)-HHHHHH is sequenced and transformed into E. coli DH10Bac strain. The recombinant bacmid DNA is isolated and transfected into Sf9 insect cells. Recombinant virus is harvested 72 h after transfection. High titer viral stock is prepared by infecting Sf9 cells at a multiplicity of infection (MOI) of approximately 0.01. A suspension of Sf9 cells (10 L) is infected with recombinant virus (MOI=5) and is incubated in a Wave Bioreactor (GE-Healthcare) for 48 h. The cells are harvested and stored at −80° C.
To purify the expressed protein, the frozen Sf9 cells (10 L) are broken into small (<1 cm) particles and suspended in a lysis buffer (300 mL) containing 20 mM Tris (pH 7.6), 0.25 mM TCEP, 100 mM NaCl, 5% glycerol and a protease inhibitor. The suspension is stirred at RT until completely thawed, lysed an additional 2-4 min on a rotary blade homogenizer, and then centrifuged at 4200 g for 1 h. Following centrifugation, the supernatant is poured through cheese cloth and combined with a nickel chelating resin (Probond Resin™, Invitrogen) which is pre-equilibrated in a wash buffer containing 10 mM Tris (pH 7.6), 0.25 mM TCEP, 300 mM NaCl, 5% glycerol, and 20 mM imidazole. The mixture is agitated for 3 h in a cold room and then centrifuged at 900 g for 10 min. The resin is dispersed in wash buffer (50 mL), centrifuged for 10 min at 900 g, re-dispersed in a small amount of wash buffer (5 mL), and then pour into a disposable Poly-Prep chromatography column, through which wash buffer is passed by gravity until no protein is observed in coomassie buffer (about 120 mL of wash buffer). An elution buffer (30 mL) containing 10 mM HEPES (pH 7.4), 150 mM NaCl, 10% glycerol, 5 mM DTT, and 400 mM imidazole is used to elute the SYK protein from the resin. The eluate is concentrated (5 mL) and further purified on a Superdex 200 column (1.2 mL/min for 160 min, 10 mM HEPES (pH 7.4), 10 mM NaCl, 10 mM MgCl, 0.1 mM EDTA, and 0.25 mM TCEP). The chromatographed fractions are run on SDS-PAGE and the requisite fractions are pooled and concentrated. Final delivery buffer is 10 mM HEPES (pH 7.4), 10 mM Methione, 150 mM NaCl, 10% glycerol, 5 mM DTT.
SYK inhibition is determined using a black 384 well plate format in buffer containing 50 mM HEPES, 10 mM NaCl, 10 mM MgCl2, 0.2 mM EDTA, 0.01% EDA (Brij®35), 1 mM DTT, and 0.1 mg/ml BSA at pH 7.3. Each test compound is prepared in DMSO using 2-fold serial dilutions for 11 data points, which are added to the buffer so that each dilution contains 3% DMSO. To each well is added 2 μL of 3 μM SFAM-KKKKEEIYFFFG-NH2 (in buffer), 2 μL of diluted test compound (3% DMSO in buffer), and 2 μL of 2.4 nM SYK and 45 μM ATP (in buffer). The reaction mixture is incubated at RT for 60 min, and quenched by adding 50 mM Hepes, 30 mM EDTA, 0.1% Triton X-100 (pH 7.3). To quantify the fluorescent-labeled substrate and product following reaction, the test plate is loaded on a Caliper LC-3000, which measures percent of conversion by microfluidic-based separation. Corresponding IC50 values are calculated by non-linear curve fitting of the compound concentrations and percent of inhibition to the standard IC50 equation and reported as pIC50, i.e., −log(IC50), where IC50 is molar concentration.

For the molecule `N[C@H]1COCC[C@H]1Nc1nc(-c2cc(C(F)F)ns2)c2c(c1F)CNC2=O` [Example 1, 6-((3R,4R)-3-Aminotetrahydro-2H-pyran-4-ylamino)-4-(3-(difluoromethyl)isothiazol-5-yl)-7-fluoro-1H-pyrrolo[3,4-c]pyridin-3(2H)-one], it took 50.1 nM to reach half-maximal inhibition (IC50).
`CCc1cc(-c2nc(N[C@@H]3CCOC[C@@H]3N)c(F)c3c2C(=O)NC3)sn1` [Example 2, 6-((3R,4R)-3-Aminotetrahydro-2H-pyran-4-ylamino)-4-(3-ethylisothiazol-5-yl)-7-fluoro-1H-pyrrolo[3,4-c]pyridin-3(2H)-one] gave an IC50 of 3.98 nM.
Next, `CCc1cc(-c2nc(N[C@@H]3CCCC[C@@H]3N)c(F)c3c2C(=O)NC3)sn1` [Example 3, 6-((1R,2S)-2-Aminocyclohexylamino)-4-(3-ethylisothiazol-5-yl)-7-fluoro-1H-pyrrolo[3,4-c]pyridin-3 (2H)-one]: 1.26 nM; `N[C@H]1COCC[C@H]1Nc1nc(-c2ccns2)c2c(c1F)CNC2=O` [Example 4, 6-((3R,4R)-3-Aminotetrahydro-2H-pyran-4-ylamino)-7-fluoro-4-(isothiazol-5-yl)-1H-pyrrolo[3,4-c]pyridin-3(2H)-one]: 12.6 nM.
Next, `N[C@H]1CCCC[C@H]1Nc1nc(-c2ccns2)c2c(c1F)CNC2=O` [Example 5, 6-((1R,2S)-2-Aminocyclohexylamino)-7-fluoro-4-(isothiazol-5-yl)-1H-pyrrolo[3,4-c]pyridin-3 (2H)-one]: 3.98 nM; `N[C@H]1COCC[C@H]1Nc1nc(-c2cc(C3CC3)ns2)c2c(c1F)CNC2=O` [Example 6, 6-((3R,4R)-3-Aminotetrahydro-2H-pyran-4-ylamino)-4-(3-cyclopropylisothiazol-5-yl)-7-fluoro-1H-pyrrolo[3,4-c]pyridin-3(2H)-one]: 0.794 nM.
`N[C@H]1COCC[C@H]1Nc1nc(-c2cc3cc(F)ccc3s2)c2c(c1F)CNC2=O` [Example 7, 6-((3R,4R)-3-Aminotetrahydro-2H-pyran-4-ylamino)-7-fluoro-4-(5-fluorobenzo[b]thiophen-2-yl)-1H-pyrrolo[3,4-c]pyridin-3(2H)-one]: half-maximal inhibition (IC50) was put at 0.2 nM.
For `N#Cc1ccc(-c2nc(N[C@@H]3CCOC[C@@H]3N)c(F)c3c2C(=O)NC3)s1` [Example 8, 5-(6-((3R,4R)-3-Aminotetrahydro-2H-pyran-4-ylamino)-7-fluoro-3-oxo-2,3-dihydro-1H-pyrrolo[3,4-c]pyridin-4-yl)thiophene-2-carbonitrile] the value was 20 nM; for `N[C@H]1COCC[C@H]1Nc1nc(-c2cc3ccncc3s2)c2c(c1F)CNC2=O` [Example 9, 6-((3R,4R)-3-Aminotetrahydro-2H-pyran-4-ylamino)-7-fluoro-4-(thieno[2,3-c]pyridin-2-yl)-1H-pyrrolo[3,4-c]pyridin-3(2H)-one], 0.2 nM.
Next, `N[C@H]1COCC[C@H]1Nc1nc(-c2ccc(F)s2)c2c(c1F)CNC2=O` [Example 12, 6-((3R,4R)-3-Aminotetrahydro-2H-pyran-4-ylamino)-7-fluoro-4-(5-fluorothiophen-2-yl)-1H-pyrrolo[3,4-c]pyridin-3(2H)-one]: 12.6 nM.
The molecule `N[C@H]1COCC[C@H]1Nc1nc(-c2cc3cccnc3s2)c2c(c1F)CNC2=O` [Example 13, 6-((3R,4R)-3-Aminotetrahydro-2H-pyran-4-ylamino)-7-fluoro-4-(thieno[2,3-b]pyridin-2-yl)-1H-pyrrolo[3,4-c]pyridin-3(2H)-one] had an IC50 of 0.251 nM.
Next, `N[C@H]1CCCC[C@H]1Nc1nc(-c2cc3cccnc3s2)c2c(c1F)CNC2=O` [Example 14, 6-((1R,2S)-2-Aminocyclohexylamino)-7-fluoro-4-(thieno[2,3-b]pyridin-2-yl)-1H-pyrrolo[3,4-c]pyridin-3(2H)-one]: 0.158 nM.
Consider `N[C@H]1CCCC[C@H]1Nc1nc(-c2cc3ccncc3s2)c2c(c1F)CNC2=O` [Example 15, 6-((1R,2S)-2-Aminocyclohexylamino)-7-fluoro-4-(thieno[2,3-c]pyridin-2-yl)-1H-pyrrolo[3,4-c]pyridin-3(2H)-one], for which the half-maximal inhibitory concentration (IC50) was 0.158 nM.
Next, `N[C@H]1CCCC[C@H]1Nc1nc(-c2cc3cc(F)ccc3s2)c2c(c1F)CNC2=O` [Example 16, 6-(((1R,2S)-2-Aminocyclohexyl)amino)-7-fluoro-4-(5-fluorobenzo[b]thiophen-2-yl)-1H-pyrrolo[3,4-c]pyridin-3(2H)-one]: 0.316 nM; `N[C@H]1COCC[C@H]1Nc1nc(-c2cc3cnccc3s2)c2c(c1F)CNC2=O` [Example 17, 6-((3R,4R)-3-Aminotetrahydro-2H-pyran-4-ylamino)-7-fluoro-4-(thieno[3,2-c]pyridin-2-yl)-1H-pyrrolo[3,4-c]pyridin-3(2H)-one]: 0.251 nM; `N[C@H]1CCCC[C@H]1Nc1nc(-c2cc3cnccc3s2)c2c(c1F)CNC2=O` [Example 18, 6-((1R,2S)-2-Aminocyclohexylamino)-7-fluoro-4-(thieno[3,2-c]pyridin-2-yl)-1H-pyrrolo[3,4-c]pyridin-3(2H)-one]: 0.316 nM.
Take `N[C@H]1COCC[C@H]1Nc1nc(-c2cc3ccc(F)cc3s2)c2c(c1F)CNC2=O` [Example 19, 6-((3R,4R)-3-Aminotetrahydro-2H-pyran-4-ylamino)-7-fluoro-4-(6-fluorobenzo[b]thiophen-2-yl)-1H-pyrrolo[3,4-c]pyridin-3(2H)-one]: the concentration for half-maximal inhibition (IC50) is 0.158 nM.
For `N[C@H]1CCCC[C@H]1Nc1nc(-c2cc3ccc(F)cc3s2)c2c(c1F)CNC2=O` [Example 20] the value was 0.251 nM; for `N#Cc1ccc2sc(-c3nc(N[C@@H]4CCOC[C@@H]4N)c(F)c4c3C(=O)NC4)cc2c1` [Example 21, 2-(6-((3R,4R)-3-Aminotetrahydro-2H-pyran-4-ylamino)-7-fluoro-3-oxo-2,3-dihydro-1H-pyrrolo[3,4-c]pyridin-4-yl)benzo[b]thiophene-5-carbonitrile], 0.316 nM.
Molecule `N#Cc1ccc2sc(-c3nc(N[C@@H]4CCCC[C@@H]4N)c(F)c4c3C(=O)NC4)cc2c1` [Example 22, 2-(6-((1R,2S)-2-Aminocyclohexylamino)-7-fluoro-3-oxo-2,3-dihydro-1H-pyrrolo[3,4-c]pyridin-4-yl)benzo[b]thiophene-5-carbonitrile] had an IC50 of 0.126 nM.
In turn, `N[C@H]1COCC[C@H]1Nc1nc(-c2cc3c(F)cccc3s2)c2c(c1F)CNC2=O` [Example 23, 6-((3R,4R)-3-Aminotetrahydro-2H-pyran-4-ylamino)-7-fluoro-4-(4-fluorobenzo[b]thiophen-2-yl)-1H-pyrrolo[3,4-c]pyridin-3(2H)-one] gave a concentration for half-maximal inhibition (IC50) of 0.398 nM.
For `N[C@H]1CCCC[C@H]1Nc1nc(-c2cc3c(F)cccc3s2)c2c(c1F)CNC2=O` [Example 24, 6-((1R,2S)-2-Aminocyclohexylamino)-7-fluoro-4-(4-fluorobenzo[b]thiophen-2-yl)-1H-pyrrolo[3,4-c]pyridin-3(2H)-one] the value was 0.398 nM.
